Data on 5 compounds can be found in patent US12054498B2, “Heteroaromatic macrocyclic ether chemotherapeutic agents” (Nuvalent, Inc., priority 2020, dated 2024).

The term IC50 denotes the concentration that inhibits the measured activity by half.

In assay [1] the target is T1, TRKA-wt (Homo sapiens, UniProt P04629).
T1 construct: or TRKA-wt (1 nM, BPS Bio, 40280) kinase domains in buffer; purchased BPS Bio 40280
In words: Biochemical kinase assay, TRKA-wt kinase domain. The note with it: apparent inhibitory constant, Morrison equation; ATP 2 mM in substrate solution; read-out: TRKA-wt Ki^app. The gist of the method: (§1)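 Compound in DMSO added first, then substrate solution (ATP 2 mM; AQT0101 or AQT0104, 26 μM; pH 7.5 HEPES, 10 mM MgCl2), then kinase solution with enzyme at 0.5–3 nM depending on construct. Kinetic read every 2 min for 120 min at 30° C; Ki^app by Morrison regression.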

In assay [2] the target is T2, Ba/F3 cells CD74-ROS1 G2032R (Homo sapiens, UniProt P08922, G2032R).
T2 construct: fusion of the C-terminus of ROS1 with the N-terminus of various partner proteins; host or cells: Ba/F3 (RIKEN), retroviral pMSCV-puro; the other entry of the earlier key: CD74 (P04233, HLA class II histocompatibility antigen gamma chain)
T2 sequence (P08922 1883-2347 G2032R limits assumed): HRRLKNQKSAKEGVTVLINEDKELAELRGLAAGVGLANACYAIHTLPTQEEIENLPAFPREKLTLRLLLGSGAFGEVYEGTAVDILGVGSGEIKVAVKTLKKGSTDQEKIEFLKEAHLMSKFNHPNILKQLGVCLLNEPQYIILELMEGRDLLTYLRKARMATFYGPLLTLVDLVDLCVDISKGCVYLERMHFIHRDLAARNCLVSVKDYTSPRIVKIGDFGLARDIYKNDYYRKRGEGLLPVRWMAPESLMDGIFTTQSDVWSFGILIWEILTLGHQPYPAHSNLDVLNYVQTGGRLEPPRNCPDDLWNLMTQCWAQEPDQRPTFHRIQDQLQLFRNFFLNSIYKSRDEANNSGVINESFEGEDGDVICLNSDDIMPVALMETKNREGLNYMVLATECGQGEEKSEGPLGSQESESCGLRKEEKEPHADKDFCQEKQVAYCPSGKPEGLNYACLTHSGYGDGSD
In words: Ba/F3 cell proliferation assay, CD74-ROS1 G2032R. The assay is classed as cell-based. Conditions: 72 hours, CellTiter-Glo. The gist of the method:
(§2)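 Viability read by CellTiter-Glo luminescence after 72 h exposure to 3-fold serial compound dilutions, four-parameter logistic fitting giving IC50.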
On the technique in general: ATP-based viability assays read luminescence as a measure of living cells.

In assay [3] the target is T3, Ba/F3 cells EML4-ALK L1196M/G1202R (variant 1) (Homo sapiens, UniProt Q9UM73, G1202R/L1196M).
T3 construct: echinoderm microtubule-associated protein-like 4 (EML4) gene and the ALK tyrosine kinase domain; host or cells: Ba/F3 (RIKEN), retroviral pMSCV-puro; the other entry of the earlier key: EML4 (Q9HC35, Echinoderm microtubule-associated protein-like 4)
T3 sequence (Q9UM73 with tags, fused parts or gaps L1196M/G1202R): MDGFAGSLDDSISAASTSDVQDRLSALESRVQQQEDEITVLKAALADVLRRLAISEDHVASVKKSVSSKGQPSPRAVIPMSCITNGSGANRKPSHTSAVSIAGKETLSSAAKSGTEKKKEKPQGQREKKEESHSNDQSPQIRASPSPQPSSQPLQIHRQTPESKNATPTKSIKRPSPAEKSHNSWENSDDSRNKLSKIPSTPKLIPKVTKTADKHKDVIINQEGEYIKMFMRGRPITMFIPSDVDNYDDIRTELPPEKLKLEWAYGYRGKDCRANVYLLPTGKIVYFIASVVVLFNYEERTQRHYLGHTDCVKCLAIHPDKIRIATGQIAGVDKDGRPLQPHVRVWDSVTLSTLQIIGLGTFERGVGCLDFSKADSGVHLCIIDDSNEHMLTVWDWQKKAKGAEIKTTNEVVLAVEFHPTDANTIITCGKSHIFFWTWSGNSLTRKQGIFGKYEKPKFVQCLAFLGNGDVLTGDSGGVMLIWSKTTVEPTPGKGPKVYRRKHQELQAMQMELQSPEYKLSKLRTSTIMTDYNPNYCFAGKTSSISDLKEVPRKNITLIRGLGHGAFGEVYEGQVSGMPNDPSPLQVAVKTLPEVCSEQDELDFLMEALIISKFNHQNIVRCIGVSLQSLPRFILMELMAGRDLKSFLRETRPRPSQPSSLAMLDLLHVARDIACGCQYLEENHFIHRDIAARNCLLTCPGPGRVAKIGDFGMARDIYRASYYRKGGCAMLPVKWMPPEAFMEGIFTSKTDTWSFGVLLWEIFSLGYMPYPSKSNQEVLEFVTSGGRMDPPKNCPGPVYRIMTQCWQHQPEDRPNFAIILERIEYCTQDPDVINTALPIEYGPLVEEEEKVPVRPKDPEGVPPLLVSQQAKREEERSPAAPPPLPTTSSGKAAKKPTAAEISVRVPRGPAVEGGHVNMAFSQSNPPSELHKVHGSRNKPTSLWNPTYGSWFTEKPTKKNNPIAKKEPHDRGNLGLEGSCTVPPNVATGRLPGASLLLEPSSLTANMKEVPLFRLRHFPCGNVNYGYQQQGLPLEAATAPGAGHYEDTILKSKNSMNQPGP
In words: Ba/F3 cell proliferation assay, EML4-ALK L1196M/G1202R (variant 1). The assay is classed as cell-based. Conditions: 72 hours, CellTiter-Glo. An outline of the steps:
(§3)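 IL-3-independent Ba/F3 monoclones, puromycin-selected, transduced with fusion genes; 1,000 cells/well, 1 day rest, 3-fold compound series, 72 h. Read: CellTiter-Glo luminescence. IC50 from % inhibition vs concentration, 4-parameter logistic.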

The target of assay [4] is T4, Ba/F3 cells CD74-ROS1 wild-type (wt) (Homo sapiens, UniProt P08922).
T4 construct: fusion of the C-terminus of ROS1 with the N-terminus of various partner proteins; host or cells: Ba/F3 (RIKEN), retroviral pMSCV-puro; the other entry of the earlier key: CD74 (P04233, HLA class II histocompatibility antigen gamma chain)
T4 sequence (P08922 1883-2347 limits assumed): as the sequence (P08922 1883-2347 G2032R limits assumed) above, with R150G counted along it
In words: Ba/F3 cell proliferation assay, CD74-ROS1 wild-type. The assay is classed as cell-based. Conditions: 72 hours, CellTiter-Glo. The gist of the method:
as §2

Assay [5] deals with T5, Ba/F3 cells EML4-ALK wt (variant 1) (Homo sapiens, UniProt Q9UM73).
T5 construct: echinoderm microtubule-associated protein-like 4 (EML4) gene and the ALK tyrosine kinase domain; host or cells: Ba/F3 (RIKEN), retroviral pMSCV-puro; the other entry of the earlier key: EML4 (Q9HC35, Echinoderm microtubule-associated protein-like 4)
T5 sequence (Q9UM73 with tags, fused parts or gaps): as the sequence (Q9UM73 with tags, fused parts or gaps L1196M/G1202R) above, with M635L, R641G counted along it
In words: Ba/F3 cell proliferation assay, EML4-ALK wt (variant 1). The note with it: 72 hours, CellTiter-Glo. The assay is classed as cell-based. The gist of the method: as §3

Assay [6] concerns the target T6, ALK-wt (Homo sapiens, UniProt Q9UM73).
T6 construct: purchased Carna 08-518
In words: Biochemical kinase assay, ALK-wt kinase domain. The note with it: apparent inhibitory constant, Morrison equation; ATP 2 mM in substrate solution; read-out: ALK-wt Ki^app. An outline of the steps:
as §1

In assay [7] the target is T7, ROS1-G2032R (Homo sapiens, UniProt P08922, G2032R).
T7 construct: purchased SignalChem R14-12BG
T7 sequence (P08922 1945-2222 G2032R limits assumed): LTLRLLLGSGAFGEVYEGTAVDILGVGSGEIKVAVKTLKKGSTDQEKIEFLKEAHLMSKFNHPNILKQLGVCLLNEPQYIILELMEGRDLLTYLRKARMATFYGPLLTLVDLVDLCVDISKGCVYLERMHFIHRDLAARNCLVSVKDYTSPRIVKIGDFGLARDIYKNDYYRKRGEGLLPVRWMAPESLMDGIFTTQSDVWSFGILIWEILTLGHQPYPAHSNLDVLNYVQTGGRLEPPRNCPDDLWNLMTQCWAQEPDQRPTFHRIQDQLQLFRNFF
The assay is described as follows: Biochemical kinase assay, ROS1-G2032R kinase domain. Conditions: apparent inhibitory constant, Morrison equation; ATP 2 mM in substrate solution; read-out: ROS1-G2032R Ki^app. The gist of the method:
(§4)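 Kinetic read: 485 nm, 2-min intervals, 120 min, 30 °C. Substrate mix — ATP 2 mM, AQT0101 26 μM, HEPES 50 mM pH 7.5, MgCl2 10 mM. Output: Ki^app, Morrison equation.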

Assay [8] addresses T8, ROS1-wt (Homo sapiens, UniProt P08922).
T8 construct: purchased Carna 08-163
In words: Biochemical kinase assay, ROS1-wt kinase domain. The note with it: apparent inhibitory constant, Morrison equation; ATP 2 mM in substrate solution; read-out: ROS1-wt Ki^app. The gist of the method: as §4

The test system of assay [9] is TPM3-NTRK1-wt IC50 / primary target IC50 (e.g. CD74-ROS1-wt). The assay is described as follows: TRKA selectivity in Ba/F3 cells (TRKA potency divided by primary target potency). The assay is classed as cell-based. The note with it: for TPM3-NTRK1-wt/CD74-ROS1-G2032R selectivity ratio: TRKA potency / CD74-ROS1-G2032R potency; for TPM3-NTRK1-wt/CD74-ROS1-wt selectivity ratio: TRKA potency / CD74-ROS1-wt potency; for TPM3-NTRK1-wt/EML4-ALK-L1196M-G1202R selectivity ratio: TRKA potency / EML4-ALK-L1196M-G1202R potency; for TPM3-NTRK1-wt/EML4-ALK-wt selectivity ratio: TRKA potency / EML4-ALK-wt potency. The procedure:
TRKA selectivity was calculated by dividing a compound's TRKA potency by its primary target potency (e.g. TPM3-NTRK1-wt IC50/CD74-ROS1-wt IC50). Compound selectivity can be interpreted by binning ratio values: bin A for very high selectivity, ratio >30-fold; bin B for high selectivity, ratio >10-fold; bin C for moderate selectivity, ratio ≥1; and bin D for low selectivity, ratio <1. […] (nd=not determined).

The target in assay [10] is T9, Ba/F3 cells TPM3-TRKA (Homo sapiens, UniProt P04629).
T9 construct: host or cells: Ba/F3 (RIKEN), retroviral pMSCV-puro; the other entry of the earlier key: TPM3 (P06753, Tropomyosin alpha-3 chain)
T9 sequence (P04629 510-796 limits assumed): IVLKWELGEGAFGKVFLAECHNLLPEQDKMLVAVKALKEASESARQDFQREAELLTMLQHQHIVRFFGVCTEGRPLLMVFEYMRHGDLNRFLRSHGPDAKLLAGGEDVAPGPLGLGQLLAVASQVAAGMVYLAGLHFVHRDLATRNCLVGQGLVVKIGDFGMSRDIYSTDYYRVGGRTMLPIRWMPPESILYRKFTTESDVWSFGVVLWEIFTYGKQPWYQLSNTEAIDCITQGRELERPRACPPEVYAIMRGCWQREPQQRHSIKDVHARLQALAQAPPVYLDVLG
The assay is described as follows: Ba/F3 cell proliferation assay, TPM3-TRKA. The assay is classed as cell-based. Conditions: 72 hours, CellTiter-Glo, read-out: TPM3-NTRK1-wt IC50. The gist of the method: as §3

For assay [11], the target named is T10, ALK L1196M/G1202R (Homo sapiens, UniProt Q9UM73, G1202R/L1196M).
T10 construct: purchased SignalChem A19-12NG
T10 sequence (Q9UM73 1116-1392 L1196M/G1202R limits assumed): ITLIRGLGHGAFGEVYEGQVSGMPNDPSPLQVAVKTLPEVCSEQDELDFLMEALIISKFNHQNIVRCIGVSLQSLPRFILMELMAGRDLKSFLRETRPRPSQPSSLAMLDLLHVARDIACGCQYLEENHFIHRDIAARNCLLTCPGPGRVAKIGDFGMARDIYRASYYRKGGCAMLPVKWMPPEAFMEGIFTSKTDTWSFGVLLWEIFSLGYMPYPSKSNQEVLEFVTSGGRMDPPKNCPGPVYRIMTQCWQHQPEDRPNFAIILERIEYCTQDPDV
In words: Biochemical kinase assay, ALK L1196M/G1202R kinase domain. Conditions: apparent inhibitory constant, Morrison equation; ATP 2 mM in substrate solution; read-out: ALK-L1196M-G1202R Ki^app. The gist of the method:
as §1

T8 sequence (P08922 1945-2222 limits assumed): as the sequence (P08922 1945-2222 G2032R limits assumed) above, with R88G counted along it
T1 sequence (P04629 510-781 limits assumed): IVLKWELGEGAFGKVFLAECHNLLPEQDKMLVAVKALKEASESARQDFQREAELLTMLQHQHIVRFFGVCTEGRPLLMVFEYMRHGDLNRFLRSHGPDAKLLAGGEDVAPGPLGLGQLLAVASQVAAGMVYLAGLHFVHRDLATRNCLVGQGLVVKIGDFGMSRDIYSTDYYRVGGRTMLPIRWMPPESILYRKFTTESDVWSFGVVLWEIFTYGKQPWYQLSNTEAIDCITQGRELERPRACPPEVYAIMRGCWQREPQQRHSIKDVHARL
T6 sequence (Q9UM73 1116-1392 limits assumed): as the sequence (Q9UM73 1116-1392 L1196M/G1202R limits assumed) above, with M81L, R87G counted along it

For the compound `CCc1noc2c1-c1cnc(N)c(c1)O[C@H](C)c1cc(F)ccc1-c1cn(C)nc1C2` [Example 23, (19R)-3ethyl-16-fluoro-10,19-dimethyl-5,20-dioxa-4,9,10,23-tetraazapentacyclo[19.3.1.0^2,^6.0^8,^12.0^13,^18]pentacosa-1(24),2(6),3,8,11,13,15,17,21(25),22-decaen-22-amine], the Ki in assay [1] is 50 to 500 nM; in assay [6], less than 50 nM; in assay [7] it was less than 50 nM; in assay [8] it was less than 50 nM; in assay [11], less than 50 nM. The IC50 lay within 0.1 to 50 nM in [2]; 50 to 500 nM in assay [3]; 0.1 to 50 nM in [4]; 0.1 to 50 nM in [5]; 50 to 500 nM in assay [10]. Moreover, in [9], the TPM3-NTRK1-wt/CD74-ROS1-G2032R selectivity ratio result is on record as “A (bin A for very high selectivity, ratio >30-fold)”. Further, in assay [9], the TPM3-NTRK1-wt/CD74-ROS1-wt selectivity ratio entry was “A (bin A for very high selectivity, ratio >30-fold)”. In [9], the TPM3-NTRK1-wt/EML4-ALK-L1196M-G1202R selectivity ratio entry is listed as “C (bin C for moderate selectivity, ratio ≥1)”. The TPM3-NTRK1-wt/EML4-ALK-wt selectivity ratio entry in assay [9] was “B (bin B for high selectivity, ratio >10-fold)”.

As for `CCn1nc(Cl)c2c1-c1cnc(N)c(c1)O[C@H](C)c1cc(F)ccc1-c1nn(C)nc1C2` [Example 28, (19R)-5-chloro-3ethyl-16-fluoro-10,19-dimethyl-20-oxa-3,4,9,10,11,23-hexaazapentacyclo[19.3.1.0^2,^6.0^8,^12.0^13,^18]pentacosa-1(24),2(6),4,8,11,13,15,17,21(25),22-decaen-22-amine], the Ki is more than 500 nM in assay [1]; less than 50 nM in assay [6]; less than 50 nM in assay [7]; less than 50 nM in assay [8]; less than 50 nM in [11]. Also, the IC50 in assay [2] was 0.1 to 50 nM; in assay [3], 50 to 500 nM; in assay [4], 0.1 to 50 nM; in assay [5], 0.1 to 50 nM; in [10], 50 to 500 nM. Moreover, in assay [9], the TPM3-NTRK1-wt/CD74-ROS1-G2032R selectivity ratio entry was “A (bin A for very high selectivity, ratio >30-fold)”. Further, the TPM3-NTRK1-wt/CD74-ROS1-wt selectivity ratio entry in assay [9] is “A (bin A for very high selectivity, ratio >30-fold)”. Besides, the TPM3-NTRK1-wt/EML4-ALK-L1196M-G1202R selectivity ratio entry in assay [9] is reported as “C (bin C for moderate selectivity, ratio ≥1)”. Also, the TPM3-NTRK1-wt/EML4-ALK-wt selectivity ratio entry in assay [9] is “B (bin B for high selectivity, ratio >10-fold)”.

As to `CCc1snc2c1-c1cnc(N)c(c1)O[C@H](C)c1cc(F)ccc1-c1nn(C)nc1C2` [Example 87, (19R)-3-ethyl-16-fluoro-10,19-dimethyl-20-oxa-4-thia-5,9,10,11,23-pentaazapentacyclo[19.3.1.0^2,^6.0^8,^12.0^13,^18]pentacosa-1(24),2,5,8,11,13,15,17,21(25),22-decaen-22-amine], the Ki was more than 500 nM in assay [1]; less than 50 nM in [6]; 50 to 500 nM in assay [7]; less than 50 nM in assay [8]; 50 to 500 nM in assay [11]. The IC50 in assay [2] is 0.1 to 50 nM; in [3], more than 500 nM; in assay [4], 0.1 to 50 nM; in [5] it was 0.1 to 50 nM; in [10] it was 50 to 500 nM. Further, the TPM3-NTRK1-wt/CD74-ROS1-G2032R selectivity ratio entry in assay [9] is “B (bin B for high selectivity, ratio >10-fold)”. The TPM3-NTRK1-wt/CD74-ROS1-wt selectivity ratio result in assay [9] is “A (bin A for very high selectivity, ratio >30-fold)”. Also, the TPM3-NTRK1-wt/EML4-ALK-L1196M-G1202R selectivity ratio result in [9] is “D (bin D for low selectivity, ratio <1)”. The TPM3-NTRK1-wt/EML4-ALK-wt selectivity ratio result in assay [9] is reported as “A (bin A for very high selectivity, ratio >30-fold)”.

Take `Cc1nn(CC2CC2)c2c1Cc1nn(C)nc1-c1c(F)cc(F)cc1[C@@H](C)Oc1cc-2cnc1N` [Example 82, (19R)-3-(cyclopropylmethyl)-14,16-difluoro-5,10,19-trimethyl-20-oxa3,4,9,10,11,23-hexaazapentacyclo[19.3.1.0^2,^6.0^8,^12.0^13,^18]pentacosa 1(24),2(6),4,8,11,13,15,17,21(25),22-decaen-22-amine]: the Ki in assay [1] is more than 500 nM; in [6] it was less than 50 nM; in assay [7] it was less than 50 nM; in [8], less than 50 nM; in assay [11] it was less than 50 nM. For the same compound, the IC50 in assay [2] is 0.1 to 50 nM; in [3], 50 to 500 nM; in [4], 0.1 to 50 nM; in [5] it was 0.1 to 50 nM; in assay [10], more than 500 nM. The TPM3-NTRK1-wt/CD74-ROS1-G2032R selectivity ratio result in [9] is on record as “A (bin A for very high selectivity, ratio >30-fold)”. Also, the TPM3-NTRK1-wt/CD74-ROS1-wt selectivity ratio result in assay [9] is recorded as “A (bin A for very high selectivity, ratio >30-fold)”. In addition, the TPM3-NTRK1-wt/EML4-ALK-L1196M-G1202R selectivity ratio result in assay [9] is “A (bin A for very high selectivity, ratio >30-fold)”. In addition, in assay [9], the TPM3-NTRK1-wt/EML4-ALK-wt selectivity ratio result is recorded as “A (bin A for very high selectivity, ratio >30-fold)”.

`CCn1ncc2c1-c1cnc(N)c(c1)O[C@H](C)c1cc(F)ccc1-c1nsnc1C2` [Example 62, (19R)-3-ethyl-16-fluoro-19-methyl-20-oxa-10-thia-3,4,9,11,23-pentaazapentacyclo[19.3.1.0^2,^6.0^8,^12.0^13,^18]pentacosa-1(24),2(6),4,8,11,13,15,17,21(25),22-decaen-22-amine]: the Ki in assay [1] was 50 to 500 nM; in [6] it was less than 50 nM; in assay [7], less than 50 nM; in assay [8] it was less than 50 nM; in assay [11], less than 50 nM. For the same compound, the IC50 is 0.1 to 50 nM in [2]; 0.1 to 50 nM in assay [3]; 0.1 to 50 nM in [4]; 0.1 to 50 nM in assay [5]; 50 to 500 nM in [10]. Besides, in [9], the TPM3-NTRK1-wt/CD74-ROS1-G2032R selectivity ratio result is reported as “A (bin A for very high selectivity, ratio >30-fold)”. Further, in [9], the TPM3-NTRK1-wt/CD74-ROS1-wt selectivity ratio entry is given as “A (bin A for very high selectivity, ratio >30-fold)”. Moreover, the TPM3-NTRK1-wt/EML4-ALK-L1196M-G1202R selectivity ratio result in assay [9] was “C (bin C for moderate selectivity, ratio ≥1)”. In assay [9], the TPM3-NTRK1-wt/EML4-ALK-wt selectivity ratio entry was “A (bin A for very high selectivity, ratio >30-fold)”.
